# Source: the NIST ThermoML archive (doi:10.1021/acs.jced.9b00313)
# ± gives the expanded uncertainty stated by the source.
# Tests used:
# [1] = xn = mol fraction of the nth substance listed; details: 86.5 kPa, Liquid; for viscosity: Capillary tube (Ostwald / Ubbelohde) method; for speed of sound: Frequency=3 MHz, Single path-length method; for mass density: Vibrating tube method
# [2] = refractive index (Na D-line) (dimensionless); xn = mol fraction of the nth substance listed; details: 86.5 kPa, Liquid, Standard Abbe refractometry
SMILES,"viscosity ([1]; 288.15 K, x2 = 0.125)","viscosity ([1]; 288.15 K, x2 = 0.167)","speed of sound ([1]; 288.15 K, x2 = 0.125)","speed of sound ([1]; 288.15 K, x2 = 0.167)","mass density ([1]; 288.15 K, x2 = 0.125)","mass density ([1]; 288.15 K, x2 = 0.167)","viscosity ([1]; 293.15 K, x2 = 0.125)","viscosity ([1]; 293.15 K, x2 = 0.167)","speed of sound ([1]; 293.15 K, x2 = 0.125)","speed of sound ([1]; 293.15 K, x2 = 0.167)","mass density ([1]; 293.15 K, x2 = 0.125)","mass density ([1]; 293.15 K, x2 = 0.167)","viscosity ([1]; 298.15 K, x2 = 0.125)","viscosity ([1]; 298.15 K, x2 = 0.167)","speed of sound ([1]; 298.15 K, x2 = 0.125)","speed of sound ([1]; 298.15 K, x2 = 0.167)","mass density ([1]; 298.15 K, x2 = 0.125)","mass density ([1]; 298.15 K, x2 = 0.167)","viscosity ([1]; 303.15 K, x2 = 0.125)","viscosity ([1]; 303.15 K, x2 = 0.167)",other results
OCCNCCO [diethanolamine] + C[N+](C)(C)CCO.[Cl-],506.3 ± 21 mPa·s,528.22 ± 22 mPa·s,1826.4 ± 2.5 m/s,1839 ± 2.5 m/s,1102.46 ± 3.2 kg/m3,1104.58 ± 3.2 kg/m3,498.57 ± 21 mPa·s,520.58 ± 22 mPa·s,1812.5 ± 2.5 m/s,1825.7 ± 2.5 m/s,1099.49 ± 3.2 kg/m3,1101.42 ± 3.2 kg/m3,491.94 ± 20 mPa·s,513.69 ± 21 mPa·s,1798.8 ± 2.5 m/s,1811.7 ± 2.5 m/s,1096.43 ± 3.1 kg/m3,1098.48 ± 3.1 kg/m3,486.41 ± 20 mPa·s,507.54 ± 21 mPa·s,"speed of sound ([1]; 303.15 K, x2 = 0.125): 1784 ± 2.5 m/s; speed of sound ([1]; 303.15 K, x2 = 0.167): 1799.1 ± 2.5 m/s; mass density ([1]; 303.15 K, x2 = 0.125): 1092.86 ± 3.1 kg/m3; mass density ([1]; 303.15 K, x2 = 0.167): 1095.52 ± 3.1 kg/m3; refractive index ([2]; 288.15 K, x2 = 0.125): 1.4892 ± 0.002; refractive index ([2]; 288.15 K, x2 = 0.167): 1.492 ± 0.002; refractive index ([2]; 293.15 K, x2 = 0.125): 1.4871 ± 0.002; refractive index ([2]; 293.15 K, x2 = 0.167): 1.4902 ± 0.002; refractive index ([2]; 298.15 K, x2 = 0.125): 1.485 ± 0.002; refractive index ([2]; 298.15 K, x2 = 0.167): 1.4877 ± 0.002; refractive index ([2]; 303.15 K, x2 = 0.125): 1.4831 ± 0.002; refractive index ([2]; 303.15 K, x2 = 0.167): 1.4861 ± 0.002"
OCCN(CCO)CCO [triethanolamine] + C[N+](C)(C)CCO.[Cl-],522.91 ± 22 mPa·s,552.67 ± 23 mPa·s,1715.5 ± 2.2 m/s,1734.7 ± 2.2 m/s,1124.87 ± 3.2 kg/m3,1125.76 ± 3.2 kg/m3,515.18 ± 21 mPa·s,545.03 ± 23 mPa·s,1703.1 ± 2.2 m/s,1723.7 ± 2.2 m/s,1122.22 ± 3.2 kg/m3,1122.89 ± 3.2 kg/m3,508.55 ± 21 mPa·s,538.14 ± 23 mPa·s,1691.2 ± 2.2 m/s,1712.2 ± 2.2 m/s,1119.73 ± 3.2 kg/m3,1120.12 ± 3.2 kg/m3,503.02 ± 21 mPa·s,531.99 ± 22 mPa·s,"speed of sound ([1]; 303.15 K, x2 = 0.125): 1678.5 ± 2.2 m/s; speed of sound ([1]; 303.15 K, x2 = 0.167): 1700.5 ± 2.2 m/s; mass density ([1]; 303.15 K, x2 = 0.125): 1116.88 ± 3.1 kg/m3; mass density ([1]; 303.15 K, x2 = 0.167): 1117.58 ± 3.1 kg/m3; refractive index ([2]; 288.15 K, x2 = 0.125): 1.49 ± 0.002; refractive index ([2]; 288.15 K, x2 = 0.167): 1.4926 ± 0.002; refractive index ([2]; 293.15 K, x2 = 0.125): 1.4877 ± 0.002; refractive index ([2]; 293.15 K, x2 = 0.167): 1.4905 ± 0.002; refractive index ([2]; 298.15 K, x2 = 0.125): 1.4856 ± 0.002; refractive index ([2]; 298.15 K, x2 = 0.167): 1.4883 ± 0.002; refractive index ([2]; 303.15 K, x2 = 0.125): 1.4835 ± 0.002; refractive index ([2]; 303.15 K, x2 = 0.167): 1.4865 ± 0.002"
OCCOCCOCCO [triethylene glycol] + C[N+](C)(C)CCO.[Cl-],144.03 ± 3.9 mPa·s,160.22 ± 4.4 mPa·s,1641.2 ± 2.2 m/s,1660.5 ± 2.2 m/s,1118.76 ± 3.2 kg/m3,1120.95 ± 3.2 kg/m3,136.3 ± 3.6 mPa·s,152.58 ± 4.2 mPa·s,1629.7 ± 2.2 m/s,1648.4 ± 2.2 m/s,1116.27 ± 3.1 kg/m3,1118.12 ± 3.2 kg/m3,129.67 ± 3.3 mPa·s,145.69 ± 3.9 mPa·s,1617.8 ± 2.2 m/s,1636.8 ± 2.2 m/s,1113.74 ± 3.1 kg/m3,1115.27 ± 3.1 kg/m3,124.14 ± 3.1 mPa·s,139.54 ± 3.7 mPa·s,"speed of sound ([1]; 303.15 K, x2 = 0.125): 1605.8 ± 2.2 m/s; speed of sound ([1]; 303.15 K, x2 = 0.167): 1624.9 ± 2.2 m/s; mass density ([1]; 303.15 K, x2 = 0.125): 1111.2 ± 3.1 kg/m3; mass density ([1]; 303.15 K, x2 = 0.167): 1112.38 ± 3.1 kg/m3; refractive index ([2]; 288.15 K, x2 = 0.125): 1.492 ± 0.002; refractive index ([2]; 288.15 K, x2 = 0.167): 1.498 ± 0.002; refractive index ([2]; 293.15 K, x2 = 0.125): 1.4912 ± 0.002; refractive index ([2]; 293.15 K, x2 = 0.167): 1.4971 ± 0.002; refractive index ([2]; 298.15 K, x2 = 0.125): 1.4887 ± 0.002; refractive index ([2]; 298.15 K, x2 = 0.167): 1.4947 ± 0.002; refractive index ([2]; 303.15 K, x2 = 0.125): 1.4872 ± 0.002; refractive index ([2]; 303.15 K, x2 = 0.167): 1.4928 ± 0.002"
